Converted amounts (≈) assume the structure as drawn.
Columns and labels:
[1] = Half life in human MIA PaCa-2 cells xenografted mouse at 100 mg/kg, po; format: ADME, organism-based; conditions: in vivo
[2] = Drug concentration in human MIA PaCa-2 cells xenografted mouse blood at 100 mg/kg, po after 40 mins; format: ADME, organism-based; conditions: whole blood, read-out: Drug uptake
[3] = Aqueous solubility of compound in pH 6.8; format: physicochemical; conditions: aqueous medium
[4] = test system: GTPase KRas (Homo sapiens), P01116 [G12C]; experiment: Displacement of [acrylamide-2,3-3H2]-N-(3-fluoro-4-(2-methyl-3-(5-methyl-1H- indazole-4-yl)-1H-pyrrolo[ 2,3-b]pyridin-1-yl)-phenyl from KRAS G12C mutant (unknown origin) assessed as ratio of Kinact/Ki by competitive scintillation proximity assay
[5] = test system: GTPase KRas (Homo sapiens), P01116 [G12C]; experiment: In vivo target occupancy at KRAS G12C mutant in human MIA PaCa-2 cells xenografted mouse assessed as decrease in free KRAS G12C level at 100 mg/kg, po after 24 hrs; format: functional, organism-based
GTPase KRas = GTPase KRas (Homo sapiens, UniProt P01116, G12C); experiment: Inhibition of KRAS G12C mutant in human NCI-H358 cells assessed as reduction in ERK phosphorylation incubated for 6 hrs by MSD assay; format: cell-based
[6] = Lipophilicity, logD of compound at pH 7.4; format: physicochemical; conditions: buffer
[7] = test system: GTPase KRas (Homo sapiens), P01116 [G12C]; experiment: In vivo target occupancy at KRAS G12C mutant in human MIA PaCa-2 cells xenografted mouse assessed as decrease in free KRAS G12C level at 100 mg/kg, po after 3 hrs; format: functional, organism-based
[8] = Cysteine reactivity in pH 7.4 phosphate buffer assessed as compound half life at 2 uM in presence of GSH
[9] = test system: GTPase KRas (Homo sapiens), P01116 [G12C]; experiment: In vivo target occupancy at KRAS G12C mutant in human MIA PaCa-2 cells xenografted mouse assessed as decrease in free KRAS G12C level at 30 mg/kg, po after 3 hrs; format: functional, organism-based
[10] = AUC in human MIA PaCa-2 cells xenografted mouse at 30 mg/kg, po; format: ADME, organism-based; design: dose 30 mg/kg, route po; conditions: in vivo
[11] = Cmax in human MIA PaCa-2 cells xenografted mouse at 30 mg/kg, po; format: ADME, organism-based; design: dose 30 mg/kg, route po; conditions: in vivo
[12] = test system: GTPase KRas (Homo sapiens), P01116 [G12C]; experiment: In vivo target occupancy at KRAS G12C mutant in human MIA PaCa-2 cells xenografted mouse assessed as decrease in […] expression at 30 mg/kg, po after 24 hrs; format: functional, organism-based
[13] = test system: GTPase KRas (Homo sapiens), P01116 [G12C]; experiment: In vivo target occupancy at KRAS G12C mutant in human MIA PaCa-2 cells xenografted mouse assessed as decrease in […] expression at 30 mg/kg, po after 3 hrs; format: functional, organism-based
[14] = test system: GTPase KRas (Homo sapiens), P01116 [G12C]; experiment: In vivo target occupancy at KRAS G12C mutant in human MIA PaCa-2 cells xenografted mouse assessed as decrease in free KRAS G12C level at 30 mg/kg, po after 24 hrs; format: functional, organism-based

Row | SMILES | solubility [3] [µM] | Ratio [4] [mM⁻¹ s⁻¹] | IC50 (GTPase KRas) [nM] | logD [6] | T1/2 [8] [h] | further results
1 | C=CC(=O)N1CC2(CC(n3nc(-c4ccccc4)c(-c4c(Cl)c(C)cc5[nH]ncc45)c3C)C2)C1 | 10 (≈ 4.72 µg/mL) | 60 | 20 | 4.9 |  | half-life [1]: 2.5 h; concentration at 40 min [2]: 4000 nM; Occ [5]: 40%; Occ [7]: 20%
2 | C=CC(=O)Nc1ccc(-n2nc(C)c(-c3c(C)ccc4[nH]ncc34)c2C)c(F)c1 |  | 0.5 |  |  | 0.5 | 
3 | C=CC(=O)N1CC2(CC(n3nc(-c4cccnc4)c(-c4c(Cl)ccc5[nH]ncc45)c3C)C2)C1 |  | 1.3 | 500 |  |  | 
4 | C=CC(=O)N1CC2(CC(n3nc(-c4ccc5cn[nH]c5c4)c(-c4c(Cl)c(C)cc5[nH]ncc45)c3C)C2)C1 |  | 19 | 50 |  |  | 
5 | C=CC(=O)N1CC2(CC(n3nc(-c4ccc5c(cnn5CCOC)c4)c(-c4c(Cl)c(C)cc5[nH]ncc45)c3C)C2)C1 | 10 (≈ 5.7 µg/mL) | 190 | 8 | 4.5 |  | Occ [9]: 100%; AUC [10]: 1.5 µM·h; Cmax [11]: 600 nM; Occ [12]: 100%; Occ [13]: 100%; Occ [14]: 100%
6 | C=CC(=O)Nc1ccc(-n2nc(C(C)C)c(-c3c(C)ccc4[nH]ncc34)c2C)c(C)c1 |  | 1.7 | 1500 |  | 1.78 | 
